Source: patent US11202821B2, “Glucose oxidase compositions” (VEGANUTRITECH LLP, priority 2016, dated 2021)
Values joined by “and” are separate entries in the source; they are usually repeats but may differ in a detail not shown here. Equal entries are not always repeated. One block for each compound: values may come before it.

What was measured:
buccal epithelial cells = test: Non invasive micronucleus assay for oxidative stress in diabetic individuals; assay type: in vivo, human; details: dose 40 gms (0.005 gms for the drugs)
From the text: Known pharmaceutical/nutraceutical compositions as well as other artificial sweeteners were compared to the pharmaceutical composition including the glucose oxidase enzyme of the invention for controlling oxidative stress in diabetic individuals.
Micronucleus is a small nucleus (also known as erratic or third nucleus), present in the cytoplasm of the cell. Formation of micronuclei indicates oxidative stress and genetic damage. The micronucleus assay using scraped buccal epithelial cells is an easy and non-invasive assay to estimate oxidative stress.
The results of the Non Invasive Micronucleus Assay, using buccal epithelial cells were tabulated as follows: […]

[1] = Effect on body weight and muscle mass in type 2 diabetic patients; assay type: in vivo, human; details: type 2 diabetic patient, dose 25 gms per day
Procedure: Six type 2 diabetic patients were randomly administered the Glucose oxidase containing sweetener composition as per the embodiment of the present invention for […], 5 patients were administered sugar and compositions containing natural sugar substitute (stevia based) based sweeteners, or artificial sweeteners based on Sucralose or Acem or compositions containing dietary fibres with saccharides, dietary fibres with sugar alcohols and dietary fibres with sugar alcohols and saccharides, the details of which are as set forth in the Table below. One patient was not given any composition. Before the onset of the study (week 0) and after 2 months, weight measurements were taken.

[2] = Calorific value by Bomb calorimeter; assay type: physicochemical
Procedure: Known sweetener compositions based on artificial sweeteners such as sucralose or Acesulfame K along with natural sugar substitute compositions including stevia, sugar, glucose and sucrose, were compared with the sweetener or the nutraceutical compositions containing glucose oxidase enzyme for their calorific values. The calorific values are determined using Bomb calorimeter.

[3] = Glucose tolerance test on healthy volunteers; assay type: in vivo, human
From the text: The data is as provided under table 21 and reflects that the sweetener compositions of the present invention are safer to use even for healthy individuals as compared to artificial sweeteners.
Observations of glucose tolerance test on healthy volunteers were made after the consumption of the sweetener composition containing glucose oxidase enzyme, as per the embodiment of the present invention and in comparison, to known artificial sweetener product having artificial sweetener sucralose and bulking agent dextrose monohydrate.

Calories/100 g [2]: 400 Calories/100 g
SMILES: OC[C@H]1O[C@@](CO)(O[C@H]2O[C@H](CO)[C@@H](O)[C@H](O)[C@H]2O)[C@@H](O)[C@@H]1O [Sugar]
Oxidative stress Values (% of cells containing micronuclei) before administration (buccal epithelial cells; baseline): 5.0 % of cells containing micronuclei | Oxidative stress Values (% of cells containing micronuclei) one month after administration (buccal epithelial cells): 7 % of cells containing micronuclei | Initial Body weight ([1]; baseline (week 0)): 60 Kgs | Body weight (after two months) [1]: 62.5 Kgs | Muscle mass increase in % over three months [1]: No change

SMILES: O.O=C[C@H](O)[C@@H](O)[C@H](O)[C@H](O)CO [Dextrose monohydrate]
Blood Sugar After 2 hrs ([3]; 2 hrs after 75 gms in 200 ml of water, individual values, monohydrate): 141 and 149 (3×) and 160 (3×) and 156 (2×) and 170 and 175 and 150 and 145 and 158 and 169 and 154 and 159 and 157 and 164 and 161 | Blood Sugar After 2 hrs, Average/20 respondents ([3]; after 2 hrs, 75 gms in 200 ml of water, average of 20 respondents): dents- 157.1 | Blood Sugar Initial ([3]; before drinking 75 gms in 200 ml of water, individual values, monohydrate): 80 and 79 and 97 and 96 and 100 (2×) and 105 (2×) and 104 (2×) and 86 and 89 and 98 and 102 (2×) and 87 and 95 and 99 and 103 and 93 | Blood Sugar Initial, Average/20 respondents ([3]; initial, average of 20 respondents): dents- 92.2

Calories/100 g [2]: 400 Calories/100 g
SMILES: OC[C@H]1OC(O)[C@H](O)[C@@H](O)[C@@H]1O (stereo partly drawn) [Glucose]

SMILES: OC[C@H]1O[C@H](O[C@]2(CCl)O[C@H](CCl)[C@@H](O)[C@@H]2O)[C@H](O)[C@@H](O)[C@H]1Cl [Sucralose]
Glycemic Response ([3]; conclusion in words): respond almost in the same manner as that of Glucose
